Test results: ChEMBL document CHEMBL5257089, “Gamabufotalin Induces Apoptosis and Cytoprotective Autophagy through the mTOR Signaling Pathway in Hepatocellular Carcinoma” (J Nat Prod, 2023)
The source made the active and inactive calls. The rule behind the calls is not given here.

Key:
[1] = test system: Hep 3B2; assay: Induction of apoptosis in human Hep3B cells assessed as viable cells at 10 nM incubated for 48 hrs by Annexin V-FITC/PI staining based flow cytometry method (Rvb =95.7%); assay type: functional; conditions: read-out: Activity
[2] = test system: Hep 3B2; assay: Induction of apoptosis in human Hep3B cells assessed as early apoptotic cells at 10 nM measured after 48 hrs by Annexin V-FITC/PI staining based flow cytometry method (reference value: 1.3%); assay type: functional
[3] = test system: Hep 3B2; assay: Induction of apoptosis in human Hep3B cells assessed as late apoptotic cells at 10 nM incubated for 48 hrs by Annexin V-FITC/PI staining based flow cytometry method (reference value: 2.2%); assay type: functional
[4] = test system: Hep 3B2; assay: Induction of apoptosis in human Hep3B cells assessed as necrotic cells at 10 nM incubated for 48 hrs by Annexin V-FITC/PI staining based flow cytometry method (reference value: 0.7%); assay type: functional
[5] = test system: Hep 3B2; assay: Induction of apoptosis in human Hep3B cells assessed as viable cells at 10 nM incubated for 48 hrs in presence of gamabufotalin by Annexin V-FITC/PI staining based flow cytometry method (Rvb =95.7%); assay type: functional; conditions: read-out: Activity
[6] = test system: Hep 3B2; assay: Induction of apoptosis in human Hep3B cells assessed as early apoptotic cells at 10 nM measured after 48 hrs in presence of gamabufotalin by Annexin V-FITC/PI staining based flow cytometry method (reference value: 1.3%); assay type: functional
[7] = test system: Hep 3B2; assay: Induction of apoptosis in human Hep3B cells assessed as late apoptotic cells at 10 nM incubated for 48 hrs in presence of gamabufotalin by Annexin V-FITC/PI staining based flow cytometry method (reference value: 2.2%); assay type: functional
[8] = test system: Hep 3B2; assay: Induction of apoptosis in human Hep3B cells assessed as necrotic cells at 10 nM incubated for 48 hrs in presence of gamabufotalin by Annexin V-FITC/PI staining based flow cytometry method (reference value: 0.7%); assay type: functional
[9] = test system: Huh-7; assay: Induction of apoptosis in human Huh-7 cells assessed as viable cells at 10 nM incubated for 48 hrs by Annexin V-FITC/PI staining based flow cytometry method (reference value: 90.0%); assay type: functional; conditions: read-out: Activity
[10] = test system: Huh-7; assay: Induction of apoptosis in human Huh-7 cells assessed as early apoptotic cells at 10 nM incubated for 48 hrs by Annexin V-FITC/PI staining based flow cytometry method (reference value: 4.3%); assay type: functional
[11] = test system: Huh-7; assay: Induction of apoptosis in human Huh-7 cells assessed as late apoptotic cells at 10 nM incubated for 48 hrs by Annexin V-FITC/PI staining based flow cytometry method (reference value: 3.8%); assay type: functional
[12] = test system: Huh-7; assay: Induction of apoptosis in human Huh-7 cells assessed as necrotic cells at 10 nM incubated for 48 hrs by Annexin V-FITC/PI staining based flow cytometry method (reference value: 1.9%); assay type: functional
[13] = test system: Huh-7; assay: Induction of apoptosis in human Huh-7 cells assessed as viable cells at 10 nM incubated for 48 hrs in presence of gamabufotalin by Annexin V-FITC/PI staining based flow cytometry method (reference value: 90.0%); assay type: functional; conditions: read-out: Activity
[14] = test system: Huh-7; assay: Induction of apoptosis in human Huh-7 cells assessed as early apoptotic cells at 10 nM incubated for 48 hrs in presence of gamabufotalin by Annexin V-FITC/PI staining based flow cytometry method (reference value: 4.3%); assay type: functional
[15] = test system: Huh-7; assay: Induction of apoptosis in human Huh-7 cells assessed as late apoptotic cells at 10 nM incubated for 48 hrs in presence of gamabufotalin by Annexin V-FITC/PI staining based flow cytometry method (reference value: 3.8%); assay type: functional
[16] = test system: Huh-7; assay: Induction of apoptosis in human Huh-7 cells assessed as necrotic cells at 10 nM incubated for 48 hrs in presence of gamabufotalin by Annexin V-FITC/PI staining based flow cytometry method (reference value: 1.9%); assay type: functional
[17] = test system: Hep 3B2; assay: Induction of apoptosis in human Hep3B cells assessed as upregulation of cleaved PARP level at 10 uM incubated for 48 hrs in presence of gamabufotalin by immunoblot analysis; assay type: functional, cell-based
[18] = test system: Hep 3B2; assay: Induction of apoptosis in human Hep3B cells assessed as upregulation of PARP level at 10 uM incubated for 48 hrs in presence of gamabufotalin by immunoblot analysis; assay type: functional, cell-based
[19] = test system: Hep 3B2; assay: Induction of apoptosis in human Hep3B cells assessed as upregulation of cleaved caspase-3 level at 10 uM incubated for 48 hrs in presence of gamabufotalin by immunoblot analysis; assay type: functional, cell-based
[20] = test system: Hep 3B2; assay: Induction of apoptosis in human Hep3B cells assessed as upregulation of caspase-3 level at 10 uM incubated for 48 hrs in presence of gamabufotalin by immunoblot analysis; assay type: functional, cell-based
[21] = test system: Hep 3B2; assay: Induction of apoptosis in human Hep3B cells assessed as upregulation of bax level at 10 uM incubated for 48 hrs in presence of gamabufotalin by immunoblot analysis; assay type: functional, cell-based
[22] = test system: Hep 3B2; assay: Induction of apoptosis in human Hep3B cells assessed as reduction in bcl-2 level at 10 uM incubated for 48 hrs in presence of gamabufotalin by immunoblot analysis; assay type: functional, cell-based
[23] = test system: Huh-7; assay: Induction of apoptosis in human Huh-7 cells assessed as upregulation of cleaved PARP level at 10 uM incubated for 48 hrs in presence of gamabufotalin by immunoblot analysis; assay type: functional, cell-based
[24] = test system: Huh-7; assay: Induction of apoptosis in human Huh-7 cells assessed as upregulation of PARP level at 10 uM incubated for 48 hrs in presence of gamabufotalin by immunoblot analysis; assay type: functional, cell-based
[25] = test system: Huh-7; assay: Induction of apoptosis in human Huh-7 cells assessed as upregulation of cleaved caspase-3 level at 10 uM incubated for 48 hrs in presence of gamabufotalin by immunoblot analysis; assay type: functional, cell-based
[26] = test system: Huh-7; assay: Induction of apoptosis in human Huh-7 cells assessed as upregulation of caspase-3 level at 10 uM incubated for 48 hrs in presence of gamabufotalin by immunoblot analysis; assay type: functional, cell-based
[27] = test system: Huh-7; assay: Induction of apoptosis in human Huh-7 cells assessed as upregulation of bax level at 10 uM incubated for 48 hrs in presence of gamabufotalin by immunoblot analysis; assay type: functional, cell-based
[28] = test system: Huh-7; assay: Induction of apoptosis in human Huh-7 cells assessed as reduction in bcl-2 level at 10 uM incubated for 48 hrs in presence of gamabufotalin by immunoblot analysis; assay type: functional, cell-based
[29] = test system: Hep 3B2; assay: Induction of autophagy in human Hep3B cells harbouring mCherry-egfp-LC3 assessed as reduction in yellow puncta ratio at 10 nM incubated for 15 mins in presence of gamabufotalin by laser scanning confocal microscopic analysis; assay type: functional, cell-based
[30] = test system: Hep 3B2; assay: Induction of autophagy in human Hep3B cells harbouring mCherry-egfp-LC3 assessed as reduction in red puncta ratio at 10 nM incubated for 15 mins in presence of gamabufotalin by laser scanning confocal microscopic analysis; assay type: functional, cell-based
[31] = test system: Hep 3B2; assay: Induction of autophagy in human Hep3B cells assessed as reduction in autophagic vesicles at 10 nM incubated for 48 hrs in presence of gamabufotalin by transmission electron microscopy based analysis; assay type: functional, cell-based
[32] = test system: Huh-7; assay: Induction of autophagy in human Huh-7 cells harbouring mCherry-egfp-LC3 assessed as reduction in yellow puncta ratio at 10 nM incubated for 15 mins in presence of gamabufotalin by laser scanning confocal microscopic analysis; assay type: functional, cell-based
[33] = test system: Huh-7; assay: Induction of autophagy in human Huh-7 cells harbouring mCherry-egfp-LC3 assessed as reduction in red puncta ratio at 10 nM incubated for 15 mins in presence of gamabufotalin by laser scanning confocal microscopic analysis; assay type: functional, cell-based
[34] = test system: Huh-7; assay: Induction of autophagy in human Huh-7 cells assessed as reduction in autophagic vesicles at 10 nM incubated for 48 hrs in presence of gamabufotalin by transmission electron microscopy based analysis; assay type: functional, cell-based
[35] = test system: Hep 3B2; assay: Induction of autophagy in human Hep3B cells assessed as restoration of mTOR phosphorylation expression at 10 uM incubated for 48 hrs in presence of gamabufotalin by immunoblot analysis; assay type: functional, cell-based
[36] = test system: Hep 3B2; assay: Induction of autophagy in human Hep3B cells assessed as restoration of ULK1 phosphorylation expression at 10 uM incubated for 48 hrs in presence of gamabufotalin by immunoblot analysis; assay type: functional, cell-based
[37] = test system: Huh-7; assay: Induction of autophagy in human Huh-7 cells assessed as restoration of mTOR phosphorylation expression at 10 uM incubated for 48 hrs in presence of gamabufotalin by immunoblot analysis; assay type: functional, cell-based
[38] = test system: Huh-7; assay: Induction of autophagy in human Huh-7 cells assessed as restoration of ULK1 phosphorylation expression at 10 uM incubated for 48 hrs in presence of gamabufotalin by immunoblot analysis; assay type: functional, cell-based
[39] = test system: Hep 3B2; assay: Induction of autophagy in human Hep3B cells assessed as upregulation of p62 at 10 uM incubated for 48 hrs in presence of gamabufotalin by immunoblot analysis; assay type: functional, cell-based
[40] = test system: Huh-7; assay: Induction of autophagy in human Huh-7 cells assessed as upregulation of p62 at 10 uM incubated for 48 hrs in presence of gamabufotalin by immunoblot analysis; assay type: functional, cell-based
[41] = test system: Hep 3B2; assay: Induction of autophagy in human Hep3B cells assessed as downregulation of LC3II/LC3I ratio at 10 uM incubated for 48 hrs in presence of gamabufotalin by immunoblot analysis; assay type: functional, cell-based
[42] = test system: Huh-7; assay: Induction of autophagy in human Huh-7 cells assessed as downregulation of LC3II/LC3I ratio at 10 uM incubated for 48 hrs in presence of gamabufotalin by immunoblot analysis; assay type: functional, cell-based

Compound: O=[N+]([O-])c1ccc(Nc2nc(N3CCOCC3)nc(N3CCOCC3)n2)cc1
- viability at 0.01 µM [1]: 94%
- Activity [2]: 2.5%
- Activity [3]: 3.4%
- Activity [4]: 0.1%
- viability at 0.01 µM [5]: 67.2%
- Activity [6]: 10.9%
- Activity [7]: 20.2%
- Activity [8]: 1.7%
- viability at 0.01 µM [9]: 92.6%
- Activity [10]: 3.8%
- Activity [11]: 2.9%
- Activity [12]: 0.7%
- viability at 0.01 µM [13]: 76.8%
- Activity [14]: 14.9%
- Activity [15]: 6.6%
- Activity [16]: 1.7%
- Activity [17]: Active
- Activity [18]: Active
- Activity [19]: Active
- Activity [20]: Active
- Activity [21]: Active
- Activity [22]: Active
- Activity [23]: Active
- Activity [24]: Active
- Activity [25]: Active
- Activity [26]: Active
- Activity [27]: Active
- Activity [28]: Active
- Activity [29]: Active
- Activity [30]: Active
- Activity [31]: Active
- Activity [32]: Active
- Activity [33]: Active
- Activity [34]: Active
- Activity [35]: Active
- Activity [36]: Active
- Activity [37]: Active
- Activity [38]: Active
- Activity [39]: Active
- Activity [40]: Active
- Activity [41]: Active
- Activity [42]: Active
